Measurements as given in ChEMBL document CHEMBL1127534, “2-Alkynyl derivatives of adenosine-5'-N-ethyluronamide: selective A2 adenosine receptor agonists with potent inhibitory activity on platelet aggregation” (J Med Chem, 1994).

Columns and labels:
Adenosine A2 receptor [1] = biological target: T1, Adenosine A2 receptor (Rattus norvegicus, UniProt P29276+P30543)
Description: Affinity for the adenosine A2 receptor was evaluated in a competition assay in rat striatum using [3H]-CGS- 21680 as radioligand

[2] = Hydrophobicity index (k') (RP-HPLC); type: ADME
Adenosine receptor A1 [3] = biological target: T2, Adenosine receptor A1 (Rattus norvegicus, UniProt P25099); experiment: Negative chronotropic activity via A1 Adenosine receptor was tested in spontaneously beating rat atria; type: functional
T2 sequence (P25099 whole entry): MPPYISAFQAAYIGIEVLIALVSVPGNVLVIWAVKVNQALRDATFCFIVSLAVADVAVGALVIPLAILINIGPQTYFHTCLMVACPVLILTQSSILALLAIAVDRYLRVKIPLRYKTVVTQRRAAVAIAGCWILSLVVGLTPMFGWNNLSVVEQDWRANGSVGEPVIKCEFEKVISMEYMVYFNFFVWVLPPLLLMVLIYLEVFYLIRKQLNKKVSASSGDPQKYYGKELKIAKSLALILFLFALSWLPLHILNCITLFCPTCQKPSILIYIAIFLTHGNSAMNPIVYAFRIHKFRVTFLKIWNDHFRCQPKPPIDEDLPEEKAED

Adenosine receptor A1 [4] = biological target: T2, Adenosine receptor A1; experiment: biochemical
Description: Affinity for adenosine A1 receptor assayed in a competition assay in rat brain using [3H]-CHA as radioligand

Adenosine A2 receptor [5] = biological target: T1, Adenosine A2 receptor; remark: listed apart in the source
Description: Negative chronotropic activity via A2 Adenosine receptor was tested monitoring vasodilation in rat aorta

Oryctolagus cuniculus = species: Oryctolagus cuniculus; experiment: Antiaggregatory effect was evaluated on rabbit platelet aggregation induced by ADP.; type: functional
Adenosine receptor A1 [6] = biological target: T2, Adenosine receptor A1; experiment: Negative chronotropic activity for A1 Adenosine receptor in spontaneously beating rat atria; type: functional
Adenosine A2 receptor [7] = biological target: T1, Adenosine A2 receptor; experiment: Vasorelaxant activity for A2 Adenosine receptor as vasodilation in rat aorta
Adenosine A2 receptor [8] = biological target: T1, Adenosine A2 receptor; experiment: Affinity for A2 Adenosine receptor in rat striatum using [3H]-CGS- 21680; type: tissue-based
Adenosine receptor A1 [9] = biological target: T2, Adenosine receptor A1; experiment: Affinity for A1 Adenosine receptor in rat brain using [3H]CHA; type: tissue-based

| Ki (Adenosine A2 receptor [1]) [nM] | k' [2] | EC50 (Adenosine receptor A1 [3]) [nM] | Ki (Adenosine receptor A1 [4]) [nM] | EC50 (Adenosine A2 receptor [5]) [nM] | EC50 (Adenosine receptor A1 [6]) [nM] | EC50 (Adenosine A2 receptor [7]) [nM] | Ki (Adenosine A2 receptor [8]) [nM] | Ki (Adenosine receptor A1 [9]) [nM] | SMILES | Ratio (Oryctolagus cuniculus) |
| --- | --- | --- | --- | --- | --- | --- | --- | --- | --- | --- |
| 38.3 | 0.15 | 730 | 48.6 | 564 | – | – | – | – | CCNC(=O)[C@H]1O[C@@H](n2cnc3c(N)nc(C#CCN)nc32)[C@H](O)[C@@H]1O | – |
| 56.4 | 0.29 | 6050 | 69.6 | 1650 | – | – | – | – | CCNC(=O)[C@H]1O[C@@H](n2cnc3c(N)nc(C#CCC(C)O)nc32)[C@H](O)[C@@H]1O (stereo partly specified) | – |
| 7.6 | 0.23 | 657 | 11.1 | 828 | – | – | – | – | CCNC(=O)[C@H]1O[C@@H](n2cnc3c(N)nc(C#CC(C)O)nc32)[C@H](O)[C@@H]1O (stereo partly specified) | – |
| 441 | 1.63 | > 10000 | 656 | 382 | – | – | – | – | CCNC(=O)[C@H]1O[C@@H](n2cnc3c(N)nc(C#CC(OCC)OCC)nc32)[C@H](O)[C@@H]1O | – |
| 0.6 | 0.77 | – | 4 | – | 475 | 159 | – | – | CCNC(=O)[C@H]1O[C@@H](n2cnc3c(N)nc(C#CC4(O)CCCC4)nc32)[C@H](O)[C@@H]1O | 5.3 |
| 61.3 | 3.9 | – | 3300 | – | > 10000 | 3030 | – | – | CCNC(=O)[C@H]1O[C@@H](n2cnc3c(N)nc(C#CC4=CCCCC4)nc32)[C@H](O)[C@@H]1O | 0.03 |
| – | 2.76 | – | – | – | – | – | – | – | OC[C@H]1O[C@@H](n2cnc3c(NC4CCCC4)nc(Cl)nc32)[C@H](O)[C@@H]1O | – |
| 0.9 | 0.82 | 110 | 2.5 | 123 | – | – | – | – | CCNC(=O)[C@H]1O[C@@H](n2cnc3c(N)nc(C#CC(O)c4ccccc4)nc32)[C@H](O)[C@@H]1O (stereo partly specified) | – |
| – | 0.42 | 153 | – | 69.3 | – | – | 12.4 | 20.4 | CCNC(=O)[C@H]1O[C@@H](n2cnc3c(N)nc(C#CC(O)CC)nc32)[C@H](O)[C@@H]1O (stereo partly specified) | – |

Second part, the compound before the results:

| SMILES | Ki (Adenosine A2 receptor [1]) [nM] | k' [2] | EC50 (Adenosine receptor A1 [3]) [nM] | Ki (Adenosine receptor A1 [4]) [nM] | EC50 (Adenosine A2 receptor [5]) [nM] | EC50 (Adenosine receptor A1 [6]) [nM] | EC50 (Adenosine A2 receptor [7]) [nM] | Ki (Adenosine A2 receptor [8]) [nM] | Ki (Adenosine receptor A1 [9]) [nM] | Ratio (Oryctolagus cuniculus) |
| --- | --- | --- | --- | --- | --- | --- | --- | --- | --- | --- |
| CCNC(=O)[C@H]1O[C@@H](n2cnc3c(N)nc(C#CC4CCCCC4)nc32)[C@H](O)[C@@H]1O | 9.2 | 4.54 | > 10000 | 236 | 329 | – | – | – | – | – |
| CCNC(=O)[C@H]1O[C@@H](n2cnc3c(N)nc(C#CCN(C)C)nc32)[C@H](O)[C@@H]1O | 2.3 | 0.37 | 332 | 27.9 | 140 | – | – | – | – | – |
| CCNC(=O)[C@H]1O[C@@H](n2cnc3c(N)nc(C#CCCCCl)nc32)[C@H](O)[C@@H]1O | 1 | 1.35 | 2520 | 37.9 | 715 | – | – | – | – | – |
| CCNC(=O)[C@H]1O[C@@H](n2cnc3c(N)nc(C#CCCCO)nc32)[C@H](O)[C@@H]1O | 11.3 | 0.22 | > 10000 | 99.9 | 300 | – | – | – | – | – |
| CCNC(=O)[C@H]1O[C@@H](n2cnc3c(N)nc(C#CC(C)(O)c4ccccc4)nc32)[C@H](O)[C@@H]1O (stereo partly specified) | 1.7 | 1.32 | 2430 | 32.7 | 456 | – | – | – | – | – |
| CCNC(=O)[C@H]1O[C@@H](n2cnc3c(N)nc(C#CCO)nc32)[C@H](O)[C@@H]1O | 9.1 | 0.17 | 84.2 | 14.1 | 367 | – | – | – | – | – |
| CCNC(=O)[C@H]1O[C@@H](n2cnc3c(N)ncnc32)[C@H](O)[C@@H]1O [NECA] | – | 0.19 | – | – | – | – | – | – | – | – |
| CCNC(=O)[C@H]1O[C@@H](n2cnc3c(N)nc(C#CC(C)(O)CC(C)C)nc32)[C@H](O)[C@@H]1O (stereo partly specified) | 0.5 | 1.84 | > 10000 | 3 | 338 | – | – | – | – | – |
| CCNC(=O)[C@H]1O[C@@H](n2cnc3c(N)nc(C#CCCO)nc32)[C@H](O)[C@@H]1O | 10.8 | 0.2 | > 10000 | 47.3 | 59.4 | – | – | – | – | – |
| CCNC(=O)[C@H]1O[C@@H](n2cnc3c(N)nc(C#CC4(N)CCCCC4)nc32)[C@H](O)[C@@H]1O | 39.4 | 0.6 | – | 398 | – | > 10000 | 779 | – | – | 0.6 |
| C#Cc1nc(N)c2ncn([C@@H]3O[C@H](C(=O)NCC)[C@@H](O)[C@H]3O)c2n1 | 57.8 | 0.25 | 167 | 35.4 | 440 | – | – | – | – | – |
| CCNC(=O)[C@H]1O[C@@H](n2cnc3c(N)nc(C#CCCCCO)nc32)[C@H](O)[C@@H]1O | 6.8 | 0.35 | > 10000 | 42.1 | 391 | – | – | – | – | – |
| C=C(C)C#Cc1nc(N)c2ncn([C@@H]3O[C@H](C(=O)NCC)[C@@H](O)[C@H]3O)c2n1 | 27.3 | 1.27 | > 10000 | 167 | 1200 | – | – | – | – | – |
| CCCCC#Cc1nc(N)c2ncn([C@@H]3O[C@H](C(=O)NCC)[C@@H](O)[C@H]3O)c2n1 | 2.2 | 2.57 | > 10000 | 130 | 596 | – | – | – | – | – |
| CCNC(=O)[C@H]1O[C@@H](n2cnc3c(N)nc(C#CCCCC#N)nc32)[C@H](O)[C@@H]1O | 4.7 | 0.32 | 2370 | 184 | 111 | – | – | – | – | – |
| CCNC(=O)[C@H]1O[C@@H](n2cnc3c(N)nc(C#CCCOC4CCCCO4)nc32)[C@H](O)[C@@H]1O (stereo partly specified) | 5 | 1.32 | – | 267 | – | > 10000 | 115 | – | – | 0.3 |
